Legend:
[1] = tested on: ER + breast cancer cell lines; assay: Proliferation assay across ER-positive cell panel; type: cell-based, human; details: 7 days
Procedure: (§1) Trypsinized cells were dispensed into 384-well plates in culture media and after overnight incubation cells were treated with compounds for 7 days. Cell viability was assessed using CellTiter-Glo (Promega) according to the manufacturer’s protocol and relative luminescence units (RLU) were measured using an Envision Multilabel Reader (Perkin Elmer). […] IC50 and Imax were analyzed with IDBS XLfit.
MCF7 cells were seeded in a 384-well plate and linear-dilution compounds were administrated in duplicate for each treatment. After incubation for 24 h, Cells in the assay pate were treated as described in methods. ERα levels were quantified by immunofluorescence assay. […] Data are given as mean ± SEM. b The maximal ERα degradation across an ER-positive cell panel was evaluated in an In-cell Western assay. Cells were dispended into 96-well plates and incubated for 24 h with compounds (100 nM) treatment. […] Cells were seeded in 384-well plates and treated with linear-dilution compounds for 7 days of incubation. Cell viability was assessed using CellTiter-Glo. Cell growth inhibition is presented as a percentage of CellTiterGlo activity relative to the vehicle control. […] WT (e) and ER. Y537S cells (f). […] Then cells in each well were collected and the targeting proteins in lysate supernatant were detected by WB

ERα = target: T1, ERα (Homo sapiens, UniProt P03372); assay: ERα degradation assay, In-Cell Western, MCF-7 WT; type: cell-based; set-up: MCF-7 wild type and Y537S mutant cells were seeded at a density of 5000 cells per well; host or cells: MCF-7; details: 24 h
T1 sequence (P03372 1-595): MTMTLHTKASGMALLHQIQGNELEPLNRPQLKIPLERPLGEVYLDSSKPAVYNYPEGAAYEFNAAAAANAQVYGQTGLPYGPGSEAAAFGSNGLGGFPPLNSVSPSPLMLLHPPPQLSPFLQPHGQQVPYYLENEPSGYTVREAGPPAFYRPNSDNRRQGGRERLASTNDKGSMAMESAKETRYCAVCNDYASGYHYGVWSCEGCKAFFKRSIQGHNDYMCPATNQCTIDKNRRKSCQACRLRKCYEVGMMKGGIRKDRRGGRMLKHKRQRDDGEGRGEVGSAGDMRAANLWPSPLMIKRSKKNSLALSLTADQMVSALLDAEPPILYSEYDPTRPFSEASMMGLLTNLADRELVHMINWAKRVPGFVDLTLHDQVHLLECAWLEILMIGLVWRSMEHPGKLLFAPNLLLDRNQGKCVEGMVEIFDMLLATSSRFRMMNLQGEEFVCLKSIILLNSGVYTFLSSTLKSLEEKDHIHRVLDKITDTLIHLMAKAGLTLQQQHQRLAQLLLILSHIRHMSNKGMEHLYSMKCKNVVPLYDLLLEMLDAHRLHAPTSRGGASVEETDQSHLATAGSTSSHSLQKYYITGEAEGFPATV
Procedure: MCF-7 wild type and Y537S mutant cells were seeded at a density of 5000 cells per well into flat clear bottom tissue cultured-treated 384-well plates (Greiner) in culture media and after overnight incubation cells were treated with compounds for 24 h. Then plates were fixed with 4% formaldehyde, permeabilized with ice-cold methanol, and blocked with Odyssey Blocking Buffer (LI-COR). The fixed cells were incubated with rabbit anti- ERα antibody (CST#8644S) and mouse anti-GAPDH antibody (Abcam #ab8245), washed and stained with IRDye 800 Goat anti-Rabbit IgG (Licor#926-32211) and IRDye 680 Goat anti-Mouse IgG (Licor#926-68070). ERα levels were quantitated using Sapphire RGBNIR (Azure), the acumen eX3 imaging system. […] IC50 and Emax were analyzed with IDBS XLfit.
MCF7 cells were seeded in a 384-well plate and linear-dilution compounds were administrated in duplicate for each treatment. After incubation for 24 h, Cells in the assay pate were treated as described in methods. ERα levels were quantified by immunofluorescence assay. […] Cells were dispended into 96-well plates and incubated for 24 h with compounds (100 nM) treatment. […] Cells were seeded in 384-well plates and treated with linear-dilution compounds for 7 days of incubation. Cell viability was assessed using CellTiter-Glo. Cell growth inhibition is presented as a percentage of CellTiterGlo activity relative to the vehicle control. […] Then cells in each well were collected and the targeting proteins in lysate supernatant were detected by WB
Cells were seeded at a density of 5,000 cells per well into 384-well plates and treated with linear-titration compounds in duplicate for 24 hours. ERα levels were quantified by immunofluorescence assay as described in the method. The detection signals were captured by Odyssey.

MCF-7 Y537S cells = assay: Viability assay (CellTiter-Glo, 7 days), MCF-7 Y537S; type: cell-based, human
Procedure: as §1
(§2) Statistical and graphical presentations were performed using IDBS XLfit and GraphPad Prism 9. For cell proliferation assays, the IC50 was calculated by fitting a dose–response curve using a nonlinear regression model with a log(inhibitor) vs response curve fit. […] P-values < 0.05 were considered statistically significant.

MCF7 ESR1 D538G cells = assay: Viability assay (CellTiter-Glo, 7 days), MCF7 D538G; type: cell-based, human; details: MCF-8 D538G
Procedure: as §1, §2

MCF-7 WT cells = assay: Viability assay (CellTiter-Glo, 7 days), MCF-7 WT; type: cell-based, human
Procedure: as §1, §2

[2] = tested on: intracranial MCF-7 tumors; assay: Intracranial MCF-7 tumor model; type: in vivo, mouse
Procedure: Female NPG mice were used for the intracranial MCF-7 tumor model. Three days before tumor cell implantation, estrogen pellets (0.72 mg, 17β-Estradiol, 60-day release, Innovative Research of America, Sarasota, FL, USA) were implanted subcutaneously. Each mouse was intracranially injected with 2 × 10^6 MCF-7 (ATCC) cells. […] Survival of mice was evaluated until Day 60. Mice were euthanized with weight loss exceeding 20% or moribund. On Day 60, all the mice remaining alive were euthanized. Before euthanasia, the mice were perfused with 4% paraformaldehyde and the brain tissues were collected for H&E staining using A[…] (Leica, Wetzlar, Germany).
as §2

CC/C(=C(\c1ccc(O)cc1)c1ccc(OCCN(C)C)cc1)c1ccccc1 [4-OH-tamoxifen]
anti-proliferation potency in ER + cell panel [1]: less potent than all tested SERDs

C[C@]12CC[C@@H]3c4ccc(O)cc4C[C@@H](CCCCCCCCC[S+]([O-])CCCC(F)(F)C(F)(F)F)[C@H]3[C@@H]1CC[C@@H]2O (some centres unmarked) [Fulvestrant]
ERα degradation assay Dmax [% Ful.] (ERα): 97.69 % Ful.
ERα degradation assay Dmax [% Veh.] (ERα): 56.04 % Veh.
Viability assay Emax [% Ful.] (MCF-7 Y537S cells): 95.49 % Ful.
Viability assay Emax [% Veh.] (MCF-7 Y537S cells): 65.05 % Veh.
IC50 (MCF-7 Y537S cells; Homo sapiens, MCF7, 168 h): 16.3 nM
IC50 (MCF7 ESR1 D538G cells; Homo sapiens, MCF7, 168 h): 11.1 nM
Viability assay Emax [% Ful.] (MCF7 ESR1 D538G cells): 106.1 % Ful.
Viability assay Emax [% Veh.] (MCF7 ESR1 D538G cells): 68.57 % Veh.
Viability assay Emax [% Ful.] (MCF-7 WT cells): 97.88 % Ful.
Viability assay Emax [% Veh.] (MCF-7 WT cells): 49.60 % Veh.
IC50 (MCF-7 WT cells; Homo sapiens, MCF7, 168 h): 0.4 nM
median survival time ([2]; 250 mg/kg subcutaneous once a week): 27 days
tumor cell infiltration in brain tissues (H&E) ([2]; Fulvestrant 250 mg/kg, SCR-6852 3 mg/kg): significant tumor cells infiltration

— article PMC10426190 (Breast Cancer Research : BCR, 2023)
